Our source for the GI50 and TGI values is PubChem BioAssay (NCI).

Holding throughout (assay): DTP human tumour cell line panel, 48 h
In experiment [1] the test system is 786-0 renal.
The test system of experiment [2] is NCI-H522 lung.
Experiment [3] relates to HCT-15 colon.
The subject of experiment [4] is SF-539 CNS.
In experiment [5] the test system is M14 melanoma.
Experiment [6] relates to UO-31 renal.
In experiment [7] the test system is OVCAR-5 ovarian.
Experiment [8] concerns MALME-3M melanoma.
Experiment [9] relates to HCC-2998 colon.
In experiment [10] the test system is HOP-92 NSCLC.

Values joined by “and” are separate entries in the source; they are usually repeats but may differ in a detail not shown here. Equal entries are not always repeated.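 Dose response: 5 concentrations. Exposure: 48 h. Format: 96-well plates. Endpoint: linear interpolation; highest concentration if not reached. Abbreviation: GI50, concentration required for 50% inhibition of growth. The concentration for full growth arrest is given as TGI.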

Turning to `O=C(O)c1c[nH]c2c(OCc3ccccc3)c3ccccc3c(O)c2c1=O`, the GI50 – broadly, the concentration giving 50% growth inhibition – in experiment [1] is 21.7 µM; in experiment [2], 25.7 µM; in experiment [3] it was 16.6 µM; in experiment [4], 19.7 µM; in experiment [5], 12.6 µM; in experiment [6] it was 20 µM. Besides, the GI50 in experiment [7] is 20 µM. The TGI (as a rule, the concentration at which net growth stops) in experiment [1] was 43.9 µM; in experiment [2], above 100 µM; in [3] it was 31.9 µM; in experiment [4], 36.4 µM; in [5] it was 25.2 µM; in [6], above 100 µM. Further, in experiment [7], the TGI was 34.2 µM.
As to `COC(=O)C1=C(CS(=O)c2ccc([N+](=O)[O-])cc2[N+](=O)[O-])ON(C)C1c1ccccc1` (stereo not given), the TGI was above 100 µM in [1]; 32.1 µM in experiment [2]; above 78.9 µM in experiment [3]; 56.2 µM in [4]; above 100 µM in experiment [5]; above 100 µM in experiment [6]. Further, the TGI in experiment [8] was above 100 µM; in experiment [7], above 100 µM; in experiment [9] it was above 56.7 µM.
On to `N#C/C(=C1C=C/C(=N\O)C(Cl)=C\1)c1ccccc1`, for which the GI50 in [1] is 0.745 µM; in [2], 1.98 µM; in experiment [3] it was 2.34 µM; in [4], 1.34 µM; in experiment [5] it was 3.2 µM; in experiment [6], 1.74 µM. Further, the GI50 was 7.35 µM in experiment [8], 3.71 µM in experiment [7] and 4.27 µM in experiment [9]. Also, the TGI was determined as 11.9 µM in [1]; 7.92 µM in experiment [2]; 11 µM in experiment [3]; 5 µM in experiment [4]; 14.2 µM in experiment [5]; 17.1 µM in [6]. The TGI is 29.9 µM in experiment [8], 13.7 µM in experiment [7] and 15.8 µM in experiment [9].
Regarding `Cc1ccc(C(=O)C#Cc2c[nH]c(=O)[nH]c2=O)cc1`, the TGI in experiment [1] came out at 26.2 µM; in experiment [10], 33.3 µM; in [3] it was 37.7 µM; in experiment [4], 15.5 µM; in experiment [5], 35 µM; in experiment [6], 37.7 µM. For the same compound, the concentration for total growth inhibition (TGI) amounted to 18.7 µM in experiment [8], 33 µM in experiment [7] and 25.3 µM in experiment [9].
Turning to `COC1=C2C[C@@H](C)C[C@@H](OC)[C@@H](O)[C@H](C)/C=C(\C)[C@@H](OC(N)=O)[C@H](OC)/C=C\C=C(/C)C(=O)NC(=CC1=O)C2=O`, the TGI in [1] is 8.21 µM and 6.04 µM and 13.7 µM; in experiment [4], 9.47 µM and 12.2 µM and 2.68 µM; in [8] it was 8.13 µM and 3.44 µM and 1.13 µM.
`CCOC(=O)C(=O)Nc1c(C)cccc1C(C)C`: the concentration for total growth inhibition (TGI) in experiment [1], in [10], in [2], in experiment [3], in experiment [4] and in experiment [5] was above 100 µM each time. The TGI in experiment [6], in [8] and in experiment [7] was above 100 µM each time.
Turning to `COc1cc(-n2cnc(-c3ccc(Cl)cc3)c2)cc(OC)c1OC`, the GI50 in experiment [1] was above 100 µM; in experiment [2], 15.6 µM; in experiment [3], 16.8 µM; in experiment [4], 17.1 µM; in [5], 73 µM; in [6], 15.6 µM. The values for the GI50 in experiment [8], in experiment [7] and in [9] were 16.1 µM, 18.6 µM and 16.8 µM, respectively. Besides, the TGI in [1] is above 100 µM; in experiment [2], 34.3 µM; in [3], 36.3 µM; in [4], 34.4 µM; in experiment [5], above 100 µM; in [6] it was 40.5 µM. In addition, the values for the TGI in experiment [8], in experiment [7] and in experiment [9] were 32.9 µM, 45.4 µM and 30.4 µM, respectively.
For the compound `COC1=CC(c2ccc[nH]2)=N/C1=C\c1[nH]c(C)c(C(C)=O)c1C`, the GI50 in [1] is 0.309 µM; in [10], 0.671 µM; in experiment [2] it was 1.6 µM; in experiment [3], 0.21 µM; in experiment [4], 2.15 µM; in experiment [6], 0.226 µM. For the same compound, the results for the GI50 in experiment [7] and in experiment [9] were above 100 µM and 2.08 µM, respectively. In addition, the TGI in experiment [1] was 1.62 µM; in [10] it was 5.13 µM; in experiment [3], 2.15 µM; in [4], 54.4 µM; in [6] it was 0.641 µM; in experiment [7] it was above 100 µM. Also, the TGI in experiment [9] was above 100 µM.
Regarding `c1ccc(CN2CCCCC(Sc3ccccc3)CC2)cc1` (stereo not given), the TGI was found to be 31.6 µM in experiment [1]; 78.8 µM in experiment [10]; 33.5 µM in [3]; 77.4 µM in experiment [4]; 32 µM in [5]; 28.8 µM in experiment [6]. Also, the TGI amounted to 38.2 µM in experiment [8], 45.1 µM in experiment [7] and 29.8 µM in [9].
Consider `COC1OC(COS(=O)(=O)c2ccc(C)cc2)C(O)C(OS(=O)(=O)c2ccc(C)cc2)C1OS(=O)(=O)c1ccc(C)cc1` (stereo not given), for which the TGI in experiment [1], in experiment [2], in experiment [3], in [4], in [5] and in experiment [6] was above 100 µM throughout. Besides, the total growth inhibition concentration (TGI) in experiment [8], in experiment [7] and in [9] was above 100 µM throughout.
As to `O=C1NC(c2c(Cl)cccc2Cl)Nc2ccccc21` (stereo not given), the TGI in experiment [1], in experiment [10], in experiment [2], in experiment [3], in experiment [4] and in experiment [5] was above 100 µM in each case. Moreover, the TGI in [6] was above 100 µM; in [8], 88.7 µM; in experiment [7], above 100 µM.
Take `CCn1c(-c2nonc2N)nc2cncc(C(=O)NCCNC)c21`: the GI50 in experiment [1] is 12.1 µM; in [2], 13.1 µM; in experiment [3], 5.98 µM; in [4], 3.04 µM; in experiment [5] it was 17.2 µM; in experiment [6] it was 0.684 µM. The GI50 in experiment [8] is 5.7 µM; in [7], 0.441 µM; in experiment [9] it was 4.77 µM. For the same compound, the concentration for total growth inhibition (TGI) was above 25 µM in experiment [1]; above 25 µM in experiment [2]; above 25 µM in experiment [3]; above 25 µM in experiment [4]; above 25 µM in experiment [5]; 5.77 µM in experiment [6]. The TGI in experiment [8], in experiment [7] and in [9] was above 25 µM in each case.
